Here are results for three molecules from patent publication US20150297643A1, “INHIBITION OF RHO AND OR ROCK AND CELL TRANSPLANTATION” (priority 2012, published 2015).

The subject of the assay is retinal ganglion cells (RGCs). The class given is in vivo, rat.

For the molecule `C[C@@H](N)[C@H]1CC[C@H](C(=O)Nc2ccncc2)CC1` [Y-27632], the “neuroprotective effect on RGCs” value (100 uM and 1 mM Y-27632, one week after optic nerve injury) is “No neuroprotective effect”. Under “rat, in vivo”, the “rescue of neurons from trauma-induced cell death (Example 8, summary)” value is listed as “not able to rescue neurons from trauma-induced cell death”.
Consider C3-transferase, for which the “RGCs protected after axotomy” value (rat, in vivo) is on record as 80%.
Consider `C[C@@H](N)C1CCN(S(=O)(=O)c2cccc3cnccc23)CC1` [BA-1049], for which the “neuroprotection of RGCs” value (highest dose tested (10 uM and 100 uM BA-1049 tested)) was “modest neuroprotection”. The “effect on RGC survival (FIG. 5)” value (very high concentration (1 mM)) was “detectable effect”.
